In ChEMBL document CHEMBL1250444, “Nitric oxide activates TRP channels by cysteine S-nitrosylation” (Nat Chem Biol, 2006):
Changes are numbered by the printed parent chain. Activity calls are given as the source filed them. The calls are words filed in the database; no cut-off is given here.

Assays:
Format in all cases: cell-based
Conditions in all cases: HEK293
[1] = biological target: Transient receptor potential cation channel subfamily V member 4 (Homo sapiens) (UniProt Q9HBA0); test: Activation of TRPV4 in HEK cells assessed as increase in Ca2+ level from extracellular space at 10 uM
Sequence of Transient receptor potential cation channel subfamily V member 4 (Homo sapiens) (Q9HBA0 whole entry): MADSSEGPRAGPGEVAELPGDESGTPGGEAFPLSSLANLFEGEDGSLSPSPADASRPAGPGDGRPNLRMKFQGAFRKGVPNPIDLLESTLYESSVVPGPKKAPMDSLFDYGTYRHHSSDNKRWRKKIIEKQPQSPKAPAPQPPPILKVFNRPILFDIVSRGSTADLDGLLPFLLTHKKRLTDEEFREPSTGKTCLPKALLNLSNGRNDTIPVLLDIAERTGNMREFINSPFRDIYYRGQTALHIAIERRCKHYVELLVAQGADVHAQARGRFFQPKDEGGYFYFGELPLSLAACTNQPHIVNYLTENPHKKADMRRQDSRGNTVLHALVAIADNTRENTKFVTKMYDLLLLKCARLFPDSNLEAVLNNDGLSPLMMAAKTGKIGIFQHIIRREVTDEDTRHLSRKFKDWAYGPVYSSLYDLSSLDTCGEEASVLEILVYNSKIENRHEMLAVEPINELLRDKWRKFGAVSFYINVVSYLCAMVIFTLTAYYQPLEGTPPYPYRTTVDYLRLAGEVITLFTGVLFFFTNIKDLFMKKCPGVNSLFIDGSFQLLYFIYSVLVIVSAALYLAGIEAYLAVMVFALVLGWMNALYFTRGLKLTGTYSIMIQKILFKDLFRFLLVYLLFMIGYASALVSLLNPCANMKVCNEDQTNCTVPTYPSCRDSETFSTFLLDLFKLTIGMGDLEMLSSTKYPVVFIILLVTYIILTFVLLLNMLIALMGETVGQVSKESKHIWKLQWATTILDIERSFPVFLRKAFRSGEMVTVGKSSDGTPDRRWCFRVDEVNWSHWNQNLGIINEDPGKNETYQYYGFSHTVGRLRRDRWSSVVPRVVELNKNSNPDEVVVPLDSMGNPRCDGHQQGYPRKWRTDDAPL

[2] = system: T1, Short transient receptor potential channel 5 (Homo sapiens), Q9UL62 [C553S]; test: Decrease in TRPC5 C553S mutant S-nitrosylation in HEK cells assessed as inhibition of incorporation of DTNB-2Bio at 30 uM relative to control
T1 sequence (whole entry): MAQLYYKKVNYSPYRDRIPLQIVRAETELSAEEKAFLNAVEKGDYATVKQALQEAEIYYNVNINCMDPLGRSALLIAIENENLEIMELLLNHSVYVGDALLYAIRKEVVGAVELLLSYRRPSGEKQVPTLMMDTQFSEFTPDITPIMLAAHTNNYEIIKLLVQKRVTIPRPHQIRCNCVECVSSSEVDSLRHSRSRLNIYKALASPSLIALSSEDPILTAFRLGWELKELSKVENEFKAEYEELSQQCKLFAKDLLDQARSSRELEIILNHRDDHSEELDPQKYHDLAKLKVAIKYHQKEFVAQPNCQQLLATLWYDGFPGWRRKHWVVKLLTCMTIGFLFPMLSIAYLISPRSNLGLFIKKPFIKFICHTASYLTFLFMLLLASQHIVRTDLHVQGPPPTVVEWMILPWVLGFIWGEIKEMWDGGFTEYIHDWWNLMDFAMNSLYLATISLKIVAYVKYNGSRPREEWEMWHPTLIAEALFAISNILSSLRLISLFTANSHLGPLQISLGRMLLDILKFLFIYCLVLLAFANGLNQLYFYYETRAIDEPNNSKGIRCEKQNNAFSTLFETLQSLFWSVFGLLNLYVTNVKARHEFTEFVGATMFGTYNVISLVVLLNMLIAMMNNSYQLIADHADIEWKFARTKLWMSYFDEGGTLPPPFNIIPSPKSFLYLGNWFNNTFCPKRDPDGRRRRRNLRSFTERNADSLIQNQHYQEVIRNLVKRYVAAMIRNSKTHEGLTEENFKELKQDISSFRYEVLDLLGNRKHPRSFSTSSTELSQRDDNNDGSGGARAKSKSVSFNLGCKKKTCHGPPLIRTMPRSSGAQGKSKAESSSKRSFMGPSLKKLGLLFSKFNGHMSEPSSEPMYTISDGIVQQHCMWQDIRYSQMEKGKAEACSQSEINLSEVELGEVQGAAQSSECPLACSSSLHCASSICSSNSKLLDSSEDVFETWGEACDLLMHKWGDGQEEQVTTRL

[3] = biological target: T2, Short transient receptor potential channel 5 (Homo sapiens) (UniProt Q9UL62); test: Induction of S-nitrosylation of TRPC5 in HEK cells assessed as inhibition of incorporation of DTNB-2Bio at 5 mM
T2 sequence (whole entry): T1 sequence (whole entry) with S553C

[4] = system: T1, Short transient receptor potential channel 5 (Homo sapiens), Q9UL62 [C553S]; test: Decrease in TRPC5 C553S mutant S-nitrosylation in HEK cells assessed as inhibition of incorporation of DTNB-2Bio at 300 uM relative to control

SMILES	Activity [1]	Activity [2]	Activity [3]	Activity [4]
O=[N+]([O-])c1ccc(SSc2ccc([N+](=O)[O-])cn2)nc1	Active	Active		
CC(=O)N[C@@H](C(=O)O)C(C)(C)SN=O (racemic)			Active	Active
